Assay [1] deals with ubiquinone binding site of complex I (IQ). The experiment in a line: High-throughput screen: ROS production from ubiquinone binding site of complex I (IQ), isolated skeletal muscle mitochondria. The settings on record: percent change in ROS from DMSO controls. The format is biochemical, rat.
Assay [2] has as its target T1, succinate dehydrogenase/complex II (SDH) (Rattus norvegicus, UniProt P21913+Q641Z9+Q6PCT8+Q920L2).
T1 construct: freshly isolated muscle mitochondria were assayed; from tissue; host or cells: rat skeletal muscle mitochondria (Wistar, Harlan Laboratories)
Description: High-throughput screen: ROS production from succinate dehydrogenase/complex II (SDH). The format is biochemical. To be noted: for inhibition at 2.5 µM: Table 7; for inhibition at 2.5 µM / SDH: percent change in ROS from DMSO controls.
Description: (§1) Skeletal muscle mitochondria were isolated from 5-8 week old female Wistar rats (Harlan Laboratories). Minced muscle was homogenized in buffer containing bacterial protease Type VIII prior to differential centrifugation to separate mitochondria from other tissue components. Unless otherwise stated, freshly isolated muscle mitochondria were assayed in buffer containing 120 mM KCl, 5 mM HEPES, 1 mM EGTA, 0.3% (w/v) bovine serum albumin. Where indicated, CaCl2 was added to yield a final free concentration of 250 nM calcium at pH 7.0 at 37° C.
Just prior to use, plates were brought to room temperature and diluted 300-fold with standard buffer (13.3X=33.3 μM). To monitor the performance of each assay throughout screening and to provide intra-plate normalization reference points, DMSO negative controls and known mitochondrial inhibitor positive controls were included on each Master compound plate.
(§2) Total amounts of superoxide and H2O2 production were determined fluorometrically as H2O2, without distinguishing between them, in the presence of exogenous superoxide dismutase (25 units/mL final), horseradish peroxidase (1 unit/mL final), and Amplex UltraRed (25 μM final) as described (Affourtit, C. et al. (2012) Measurement of proton leak and electron leak in isolated mitochondria. Methods Mol. Biol. 810: 165-82). Just prior to use, a bulk 3.3X solution was made in standard buffer and distributed into a 2 mL deep well 96-well transfer plate.
To assess the effects of a compound on ROS production from succinate dehydrogenase/complex II (SDH), Start Solution containing 15 μM palmitoyl carnitine, 2.5 μM antimycin A and 2 μM myxothiazol was distributed into standard 96-well transfer plates. A Biomek FX workstation was programmed to dispense solutions into black 96-well assay plates. Solutions were dispensed to all assay plates in the following order: ROS Detection solution described in Example 3, Mitochondria solution described in Example 1 to a final concentration of 0.3 mg/ml, and Compound dilutions described in Example 2. Duplicate assay plates were made and each was initiated by the addition of 3.3X Start solution containing 15 μM palmitoyl carnitine, 2.5 μM antimycin A and 2 μM myxothiazol. Plates were incubated in the dark at room temperature for 30-40 minutes before acquiring endpoint fluorescence using a Victor 3V plate reader (Perkin Elmer) equipped with 550/590 nm excitation/emission filters.
The fluorescence values in each well were scaled as the percent change from the intra-plate DMSO controls with the appropriate inhibitor positive controls defined as −100%. Following initial scaling, intra-plate normalized values were subjected to Tukey's two-way median polish to remove row and column dependent positional effects (Malo et al., 2006).

The target in assay [3] is T2, flavin binding site of complex I (IF) (Rattus norvegicus, UniProt Q5XIH3).
T2 construct: freshly isolated muscle mitochondria were assayed; from tissue; host or cells: rat skeletal muscle mitochondria (Wistar, Harlan Laboratories)
Description: High-throughput screen: ROS production from flavin binding site of complex I (IF). The format is biochemical. To be noted: percent change in ROS from DMSO controls; for inhibition at 2.5 µM: Table 7, read-out: IF.

Assay [4] addresses T3, outer ubiquinone binding site of complex III (IIIQO) (Rattus norvegicus, UniProt P00159+P20788).
T3 construct: freshly isolated muscle mitochondria were assayed; from tissue; host or cells: rat skeletal muscle mitochondria (Wistar, Harlan Laboratories)
The experiment in a line: High-throughput screen: ROS production from outer ubiquinone binding site of complex III (IIIQO). The format is biochemical. To be noted: percent change in ROS from DMSO controls.

Assay [5] concerns the target T4, glycerol-3-phosphate dehydrogenase (GPDH) (Rattus norvegicus, UniProt P35571).
T4 construct: The activity of GPDH in intact mitochondria (0.3 mg/mL) was measured; from tissue; host or cells: rat skeletal muscle mitochondria (Wistar, Harlan Laboratories)
T4 sequence (P35571 43-727): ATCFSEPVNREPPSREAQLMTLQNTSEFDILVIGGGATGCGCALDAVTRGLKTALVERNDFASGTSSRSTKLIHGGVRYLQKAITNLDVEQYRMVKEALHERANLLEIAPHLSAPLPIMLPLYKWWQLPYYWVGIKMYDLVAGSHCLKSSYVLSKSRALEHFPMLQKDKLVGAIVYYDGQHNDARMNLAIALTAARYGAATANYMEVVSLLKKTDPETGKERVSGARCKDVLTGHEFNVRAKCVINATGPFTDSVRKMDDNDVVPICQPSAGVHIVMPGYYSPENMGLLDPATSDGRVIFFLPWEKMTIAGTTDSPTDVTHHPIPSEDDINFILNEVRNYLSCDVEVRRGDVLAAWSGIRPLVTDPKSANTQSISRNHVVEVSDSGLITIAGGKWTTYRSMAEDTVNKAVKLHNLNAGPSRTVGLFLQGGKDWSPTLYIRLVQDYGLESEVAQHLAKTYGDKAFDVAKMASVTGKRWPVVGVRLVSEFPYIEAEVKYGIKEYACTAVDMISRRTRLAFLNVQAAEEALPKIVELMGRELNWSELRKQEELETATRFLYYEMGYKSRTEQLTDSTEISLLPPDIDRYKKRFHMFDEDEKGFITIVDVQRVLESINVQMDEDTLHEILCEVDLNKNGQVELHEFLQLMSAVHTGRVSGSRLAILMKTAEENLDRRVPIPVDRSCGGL
The experiment in a line: High-throughput screen: ROS production from glycerol-3-phosphate dehydrogenase (GPDH). The format is biochemical. Also on record: inhibition: dose or concentration left out as unconfirmed. The settings on record: for inhibition at 2.5 µM: Table 6, 25 mM glycerol phosphate, rotenone, antimycin A, malonate, myxothiazol, compounds 2.5 μM, scaled to IQ positive controls, read-out: % Reduction in ROS Production (GPDH); for inhibition: Table 7; for inhibition / GPDH: percent change in ROS from DMSO controls.
Description: as §1
Compounds (10 mM in DMSO) were randomly selected from a library of 24,000 compounds obtained from ChemBridge and curated by the lab of Robert Hughes at the Buck Institute. Master screening plates were prepared using a Biomek FX liquid handling workstation (Beckman) to transfer 1 μL of each compound into individual wells on 96-well storage plates (80 compounds per plate). Master plates were sealed with foil and stored at −80° C. Just prior to use, plates were brought to room temperature and diluted 300-fold with standard buffer (13.3X=33.3 μM). To monitor the performance of each assay throughout screening and to provide intra-plate normalization reference points, DMSO negative controls and known mitochondrial inhibitor positive controls were included on each Master compound plate.
as §2
To assess the effects of a compound on ROS production from glycerol-3-phosphate dehydrogenase (GPDH), Start Solution containing 25 mM glycerol phosphate, 4 μM rotenone, 2.5 μM antimycin A, 1 mM malonate, 2 μM myxothiazol was distributed into standard 96-well transfer plates. A Biomek FX workstation was programmed to dispense solutions into black 96-well assay plates. Solutions were dispensed to all assay plates in the following order: ROS Detection solution described in Example 3, Mitochondria solution described in Example 1 to a final concentration of 0.2 mg/ml, and Compound dilutions described in Example 2. Duplicate assay plates were made and each was initiated by the addition of 3.3X Start solution containing 25 mM glycerol phosphate, 4 μM rotenone, 2.5 μM antimycin A, 1 mM malonate, 2 μM myxothiazol. Plates were incubated in the dark at room temperature for 30-40 minutes before acquiring endpoint fluorescence using a Victor 3V plate reader (Perkin Elmer) equipped with 550/590 nm excitation/emission filters.
The fluorescence values in each well were scaled as the percent change from the intra-plate DMSO controls. […] Following initial scaling, intra-plate normalized values were subjected to Tukey's two-way median polish to remove row and column dependent positional effects (Malo et al., 2006).

Where two headings read alike, the source gives them in different places.

T1 sequence (Q920L2 35-656): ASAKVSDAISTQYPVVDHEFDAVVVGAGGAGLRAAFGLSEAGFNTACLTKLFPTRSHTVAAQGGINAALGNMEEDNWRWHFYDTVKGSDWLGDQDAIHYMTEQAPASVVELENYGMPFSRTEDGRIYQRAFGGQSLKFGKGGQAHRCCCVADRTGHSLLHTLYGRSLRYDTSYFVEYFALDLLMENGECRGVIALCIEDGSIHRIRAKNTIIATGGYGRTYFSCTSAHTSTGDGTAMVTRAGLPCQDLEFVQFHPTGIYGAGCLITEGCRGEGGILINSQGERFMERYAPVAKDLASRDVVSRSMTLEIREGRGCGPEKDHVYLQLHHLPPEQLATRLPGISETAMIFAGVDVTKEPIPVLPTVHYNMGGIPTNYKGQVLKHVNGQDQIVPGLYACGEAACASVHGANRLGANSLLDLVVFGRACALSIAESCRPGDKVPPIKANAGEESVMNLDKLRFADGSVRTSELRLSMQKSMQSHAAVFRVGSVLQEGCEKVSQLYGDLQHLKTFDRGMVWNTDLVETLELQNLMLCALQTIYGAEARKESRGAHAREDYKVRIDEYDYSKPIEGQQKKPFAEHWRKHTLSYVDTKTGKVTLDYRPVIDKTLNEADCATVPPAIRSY
T1 sequence (P21913 31-282): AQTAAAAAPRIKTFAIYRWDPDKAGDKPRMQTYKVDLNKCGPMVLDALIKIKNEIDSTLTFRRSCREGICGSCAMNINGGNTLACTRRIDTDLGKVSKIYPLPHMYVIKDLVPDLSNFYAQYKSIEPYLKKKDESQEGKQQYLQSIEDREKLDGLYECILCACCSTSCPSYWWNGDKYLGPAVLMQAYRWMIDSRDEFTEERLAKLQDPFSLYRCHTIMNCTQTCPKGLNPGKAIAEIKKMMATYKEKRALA
T1 sequence (Q641Z9 30-169 limits assumed): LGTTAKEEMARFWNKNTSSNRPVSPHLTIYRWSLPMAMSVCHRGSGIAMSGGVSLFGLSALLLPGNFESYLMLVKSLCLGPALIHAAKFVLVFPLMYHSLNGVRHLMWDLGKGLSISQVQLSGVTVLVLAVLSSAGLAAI
T1 sequence (Q6PCT8 57-159): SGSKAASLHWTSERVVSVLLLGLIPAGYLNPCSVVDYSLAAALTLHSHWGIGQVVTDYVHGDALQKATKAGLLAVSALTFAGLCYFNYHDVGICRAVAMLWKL
T2 sequence (Q5XIH3 21-464 limits assumed, one chain of several): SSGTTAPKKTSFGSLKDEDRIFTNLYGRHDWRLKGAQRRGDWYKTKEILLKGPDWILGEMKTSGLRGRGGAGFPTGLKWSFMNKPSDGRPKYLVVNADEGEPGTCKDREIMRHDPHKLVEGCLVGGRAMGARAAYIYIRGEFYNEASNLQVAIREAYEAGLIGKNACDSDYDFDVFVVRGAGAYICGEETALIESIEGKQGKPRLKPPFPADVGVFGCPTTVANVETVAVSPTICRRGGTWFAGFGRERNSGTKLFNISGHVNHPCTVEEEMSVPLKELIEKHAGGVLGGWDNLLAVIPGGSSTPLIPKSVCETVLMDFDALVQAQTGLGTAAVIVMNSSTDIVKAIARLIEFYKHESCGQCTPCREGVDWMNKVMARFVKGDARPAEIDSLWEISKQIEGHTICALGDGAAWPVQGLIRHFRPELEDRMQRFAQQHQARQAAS

Compound `CCCC(=O)Nc1ccc(-c2nc3cc4ccccc4cc3[nH]2)cc1` [Compound 68] showed an IQ in assay [1] (Table 7) of −23.0. Also, the inhibition at 2.5 µM in assay [2] is 3.7%; in assay [3] it was 1.3%; in assay [4] (Table 7, read-out: IIIQO), -1.1%; in assay [5], 11.1%. Besides, the inhibition in assay [5] turned out to be 32.1%.
Consider `CCOc1ccc(C(=O)Nc2ccc(-c3nc4ccccc4[nH]3)cc2)cc1` [Compound 64], for which, in assay [1] (Table 7), the IQ is −15.3. For the same compound, the inhibition at 2.5 µM in assay [2] is -9.8%; in assay [3] it was 3.8%; in assay [4] (Table 7, read-out: IIIQO), 1%; in assay [5], -8.2%. Besides, in assay [5], the inhibition turned out to be 13%.
Consider `CC1CC(C)(C)N(C=O)c2ccccc21` (stereo not shown) [Compound 71], for which the IQ in assay [1] (Table 7), in assay [1] (Table 8) and in assay [1] (Table 9) was 1.6 in each case. Further, in assay [2] (Table 5, 15 μM palmitoyl carnitine, 2.5 μM antimycin A, 2 μM myxothiazol, compounds 2.5 μM, percent change from DMSO), the “% Reduction in ROS Production (SDH)” value is on record as −87.6%. Moreover, the inhibition at 2.5 µM in assay [2] was 87.6%; in assay [3], -7%; in assay [4] (Table 7, read-out: IIIQO), -6.3%; in assay [4] (Table 9, read-out: IIIQo) it was -6.3%. The SDH in assay [2] (Table 8) and in assay [2] (Table 9) was −87.6 each time. Also, the IF in assay [3] (Table 8) and in assay [3] (Table 9) was 7.0 in each case. The IIIQO in assay [4] (Table 8) was 6.3. In addition, the inhibition in assay [5] worked out at 0.6%. For the same compound, the GPDH in assay [5] (Table 8) and in assay [5] (Table 9) was −0.6 in each case.
The compound `C=C(C)C(=O)Nc1ccc(-c2nc3ccccc3[nH]2)cc1` [Compound 56] returned an IQ in assay [1] (Table 7) of −0.3. Besides, the inhibition at 2.5 µM in assay [2] was 2.9%; in assay [3] it was -0.3%; in assay [4] (Table 7, read-out: IIIQO), -1.4%; in assay [5], -1.5%. The inhibition in assay [5] came out at 0.8%.
In turn, `Cc1ccc(NC(=O)CCC(=O)O)cc1` [Compound 67] showed an IQ in assay [1] (Table 7) of −11.7. In addition, the inhibition at 2.5 µM in assay [2] is 16.8%; in assay [3], 10.1%; in assay [4] (Table 7, read-out: IIIQO), 6.5%; in assay [5], -1.8%. Besides, the inhibition in assay [5] is 11.1%.
In turn, `c1ccc2[nH]c(-c3ccc(-c4nc5ccccc5[nH]4)cc3)nc2c1` [Compound 55] gave an IQ in assay [1] (Table 7) of −3.9. Besides, the inhibition at 2.5 µM in assay [2] was -1.5%; in assay [3] it was 1.9%; in assay [4] (Table 7, read-out: IIIQO), -3.3%; in assay [5], -3.3%. Further, in assay [5], the inhibition is -1.5%.
`CC(=O)Nc1ccc(-c2nc3ccccc3[nH]2)cc1` [Compound 59] showed an IQ in assay [1] (Table 7) of −12.3. Moreover, the inhibition at 2.5 µM in assay [2] turned out to be 5.1%; in assay [3], 3%; in assay [4] (Table 7, read-out: IIIQO) it was 1.3%; in assay [5] it was 1.2%. Further, in assay [5], the inhibition was determined as 4.4%.
With `O=C(O)CCC(=O)Nc1ccc(-c2nc3ccccc3s2)cc1` [Compound 65], in assay [1] (Table 7), the IQ was −11.0. Further, the inhibition at 2.5 µM in assay [2] was -0.2%; in assay [3], 1.3%; in assay [4] (Table 7, read-out: IIIQO) it was 1%; in assay [5] it was 13%. Moreover, the inhibition in assay [5] amounted to 1.9%.
With `O=C(O)CCC(=O)Nc1ccc(-c2nc3cc(NC(=O)CCC(=O)O)ccc3[nH]2)cc1` [Compound 57], the IQ in assay [1] (Table 7) is recorded as 3.1. The inhibition at 2.5 µM in assay [2] was -4.2%; in assay [3] it was -1.7%; in assay [4] (Table 7, read-out: IIIQO) it was -0.4%; in assay [5], 0.8%. The inhibition in assay [5] is -0.2%.
`O=C(O)CCC(=O)Nc1cccc(-c2nc3ccccc3[nH]2)c1` [Compound 60] gave an IQ in assay [1] (Table 7) of −43.9. Besides, the inhibition at 2.5 µM in assay [2] is 3.4%; in assay [3] it was 4.2%; in assay [4] (Table 7, read-out: IIIQO) it was -1.1%; in assay [5], 4.4%. The inhibition in assay [5] amounted to 48.3%.

Values taken from US20140128352A1, “COMPOUNDS AND METHODS FOR MODULATING MITOCHONDRIAL METABOLISM AND REACTIVE OXYGEN SPECIES PRODUCTION” (Buck Institute for Research on Aging, priority 2012, published 2014).
